We go through 15 compounds from ChEMBL document CHEMBL3396982, “Design and synthesis of a novel series of [1-(4-hydroxy-benzyl)-1H-indol-5-yloxy]-acetic acid compounds as potent, selective, thyroid hormone receptor β agonists” (Bioorg Med Chem Lett, 2015).

Series [1] addresses T1, Thyroid hormone receptor beta (Homo sapiens, UniProt P10828).
T1 sequence (P10828 whole entry): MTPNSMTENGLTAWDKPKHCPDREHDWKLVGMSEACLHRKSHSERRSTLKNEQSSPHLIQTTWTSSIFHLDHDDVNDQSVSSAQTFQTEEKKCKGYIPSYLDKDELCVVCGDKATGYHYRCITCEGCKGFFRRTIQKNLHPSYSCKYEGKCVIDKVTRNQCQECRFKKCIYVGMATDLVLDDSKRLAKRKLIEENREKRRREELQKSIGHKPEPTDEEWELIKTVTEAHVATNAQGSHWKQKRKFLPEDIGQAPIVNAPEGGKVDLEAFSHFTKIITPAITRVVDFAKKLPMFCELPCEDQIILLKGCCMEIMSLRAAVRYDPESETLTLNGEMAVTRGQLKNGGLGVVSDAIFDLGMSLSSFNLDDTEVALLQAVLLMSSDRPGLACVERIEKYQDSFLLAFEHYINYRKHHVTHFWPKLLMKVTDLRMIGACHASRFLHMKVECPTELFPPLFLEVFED
In words: Displacement of [125I]-L-3,5,3'-triiodothyronine from human TRbeta expressed in human Hela cell lysate measured after overnight incubation by competition binding assays. The series is classed as cell-free. On the technique in general: In a radioligand displacement assay an active substance lowers the binding of a labelled ligand.

Series [2] addresses T2, Thyroid hormone receptor alpha (Homo sapiens, UniProt P10827).
T2 sequence (P10827 whole entry): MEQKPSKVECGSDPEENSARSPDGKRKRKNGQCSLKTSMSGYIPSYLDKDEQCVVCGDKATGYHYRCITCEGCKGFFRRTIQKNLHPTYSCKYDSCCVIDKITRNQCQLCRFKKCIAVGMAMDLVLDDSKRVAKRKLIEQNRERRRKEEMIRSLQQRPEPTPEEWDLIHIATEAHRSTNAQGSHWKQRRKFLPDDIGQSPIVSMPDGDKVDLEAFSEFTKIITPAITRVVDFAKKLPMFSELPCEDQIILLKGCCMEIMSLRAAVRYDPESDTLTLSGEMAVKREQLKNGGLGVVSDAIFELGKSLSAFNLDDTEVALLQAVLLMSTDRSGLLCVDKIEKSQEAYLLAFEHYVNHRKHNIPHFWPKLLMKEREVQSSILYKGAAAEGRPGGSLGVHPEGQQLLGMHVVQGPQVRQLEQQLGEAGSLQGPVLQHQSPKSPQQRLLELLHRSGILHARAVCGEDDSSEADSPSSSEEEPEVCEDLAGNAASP
In words: Displacement of [125I]-L-3,5,3'-triiodothyronine from human TRalpha expressed in human Hela cell lysate measured after overnight incubation by competition binding assays. The series is classed as cell-free.

Series [3] deals with T1, Thyroid hormone receptor beta. Put plainly: Agonist activity at TRbeta (unknown origin) expressed in human HuH7 cells after 24 hrs by Gal4 CTF cell-based assay. More on the design: species or system Huh-7.
The target of series [4] is T2, Thyroid hormone receptor alpha. Put plainly: Agonist activity at TRalpha (unknown origin) expressed in human HuH7 cells after 24 hrs by Gal4 CTF cell-based assay. More on the design: species or system Huh-7.
Series [5] has as its system Rattus norvegicus. In words: Increase in HDL level in fructose-fed Sprague-Dawley rat model of dyslipidemia at 0.1 mg/kg, po qd through oral gavage by size exclusion chromatography relative to vehicle-treated control. Format: functional. In general terms: Size exclusion chromatography separates by hydrodynamic size, large species first.
Series [6] has as its system Rattus norvegicus. In words: Toxicity in fructose-fed Sprague-Dawley rat model of dyslipidemia assessed as effect on food intake at 0.1 to 10 mg/kg, po qd through oral gavage. The series is classed as organism-based. To be noted: in vivo. More on the design: dose 0.1-10 mg/kg, route oral.
The test system of series [7] is Rattus norvegicus. Put plainly: Increase in HDL level in fructose-fed Sprague-Dawley rat model of dyslipidemia at 0.3 mg/kg, po qd through oral gavage by size exclusion chromatography relative to vehicle-treated control. Format: functional.
For series [8], the system named is Rattus norvegicus. Put plainly: Increase in HDL level in fructose-fed Sprague-Dawley rat model of dyslipidemia at 1 mg/kg, po qd through oral gavage by size exclusion chromatography relative to vehicle-treated control. The series is classed as functional.
Series [9] deals with Rattus norvegicus. In words: Increase in HDL level in fructose-fed Sprague-Dawley rat model of dyslipidemia at 3 mg/kg, po qd through oral gavage by size exclusion chromatography relative to vehicle-treated control. Format: functional.
The subject of series [10] is Rattus norvegicus. Put plainly: Increase in HDL level in fructose-fed Sprague-Dawley rat model of dyslipidemia at 10 mg/kg, po qd through oral gavage by size exclusion chromatography relative to vehicle-treated control. Format: functional.
The subject of series [11] is Rattus norvegicus. In words: Decrease in triglyceride level in fructose-fed Sprague-Dawley rat model of dyslipidemia at 0.1 mg/kg, po qd through oral gavage by size exclusion chromatography (Rvb =296 +/- 20 mg/dL). Format: functional.
The test system of series [12] is Rattus norvegicus. In words: Decrease in triglyceride level in fructose-fed Sprague-Dawley rat model of dyslipidemia at 0.3 mg/kg, po qd through oral gavage by size exclusion chromatography (Rvb =296 +/- 20 mg/dL). The series is classed as functional.
For series [13], the system named is Rattus norvegicus. In words: Decrease in triglyceride level in fructose-fed Sprague-Dawley rat model of dyslipidemia at 1 mg/kg, po qd through oral gavage by size exclusion chromatography (Rvb =296 +/- 20 mg/dL). Format: functional.
The test system of series [14] is Rattus norvegicus. Put plainly: Decrease in triglyceride level in fructose-fed Sprague-Dawley rat model of dyslipidemia at 3 mg/kg, po qd through oral gavage by size exclusion chromatography (Rvb =296 +/- 20 mg/dL). Format: functional.
The subject of series [15] is Rattus norvegicus. In words: Decrease in triglyceride level in fructose-fed Sprague-Dawley rat model of dyslipidemia at 10 mg/kg, po qd through oral gavage by size exclusion chromatography (Rvb =296 +/- 20 mg/dL). The series is classed as functional.

The term Ki denotes a measure of affinity in units of concentration, obtained from inhibition or displacement. `Cc1cn(Cc2ccc(O)c(C3CCCCC3)c2)c2ccc(OCC(=O)O)cc12`: the figures for the Ki in series [1] and in [2] were 8.04 nM and 200 nM, respectively.
The matching figures for `Cc1cn(Cc2ccc(O)c(C(C)C)c2)c2c(Cl)cc(OCC(=O)O)cc12`: 0.09 nM and 0.51 nM.
Usually EC50 stands for the concentration giving half of the maximal effect. For the compound `Cc1cn(Cc2ccc(O)c(Cc3ccccc3)c2)c2ccc(OCC(=O)O)cc12`, the values for the Ki in series [1] and in series [2] were 0.54 nM and 36.5 nM, respectively. Also, the EC50 stood at 406 nM in series [3] and 2470 nM in series [4].
On to `Cc1cn(Cc2ccc(O)c(C(C)(C)C)c2)c2ccc(OCC(=O)O)cc12`, for which the values for the Ki in series [1] and in series [2] were 0.3 nM and 9.98 nM, respectively.
As to `Cc1cc2cc(OCC(=O)O)cc(Cl)c2n1Cc1ccc(O)c(C(C)C)c1`, the results for the Ki in series [1] and in [2] were 0.04 nM and 0.38 nM, respectively.
Turning to `Cc1cc2cc(OCC(=O)O)ccc2n1Cc1ccc(O)c(C(C)C)c1`, the Ki stood at 1.12 nM in [1] and 16.3 nM in [2].
`Cc1cn(Cc2ccc(O)c(C3CCCC3)c2)c2ccc(OCC(=O)O)cc12`: the results for the Ki in [1] and in series [2] were 0.64 nM and 32.3 nM, respectively.
The matching figures for `Cc1cn(Cc2ccc(O)c(C(C)C)c2)c2c(C)cc(OCC(=O)O)cc12`: 0.18 nM and 2.77 nM.
In the case of `Cc1cn(Cc2ccc(O)c(C(C)C)c2)c2ccc(OCC(=O)O)cc12`, the results for the Ki in series [1] and in series [2] were 0.38 nM and 7.74 nM, respectively. The Activity is 22% in series [5]; “Non-toxic” in [6]; 39% in series [7]; 55% in series [8]; 42% in series [9]; 35% in series [10]. The Activity worked out at 204 mg/dL in series [11]; 214 mg/dL in series [12]; 177 mg/dL in series [13]; 149 mg/dL in [14]; 106 mg/dL in series [15].
Regarding `Cc1cc(OCC(=O)O)cc2ccn(Cc3ccc(O)c(C(C)C)c3)c12`, the Ki in series [1] amounted to 0.26 nM; in [2] it was 1.09 nM.
Consider `Cc1cn(Cc2ccc(O)c(CC3CCCCC3)c2)c2ccc(OCC(=O)O)cc12`, for which the results for the Ki in series [1] and in series [2] were 1.11 nM and 46.6 nM, respectively.
Take `Cc1cn(Cc2ccc(O)c(-c3ccccc3)c2)c2ccc(OCC(=O)O)cc12`: the Ki in series [1] stood at 3.14 nM; in series [2], 89.9 nM.
The matching figures for `Cc1cc(OCC(=O)O)cc2cc(C)n(Cc3ccc(O)c(C(C)C)c3)c12`: 0.14 nM and 2.05 nM.
The matching figures for `CC(C)c1cc(Cn2ccc3cc(OCC(=O)O)ccc32)ccc1O`: 1.04 nM and 13.5 nM.
The matching figures for `CC(C)c1cc(Cn2ccc3cc(OCC(=O)O)cc(Cl)c32)ccc1O`: 0.07 nM and 0.35 nM.
